Where a SMILES comes first, the peptide text is derived from it. Bridges are numbered along the chain shown (N, C = ends).
How the values were obtained:
[1] = test system: RAW264.7 murine macrophage-like cells; experiment: In vitro gene expression of M1-like and M2-like macrophage markers (real-time PCR); format: cell-based; details: RAW264.7 in 20% CT26-CM/DMEM, 3 days
Method: The detailed method and DNA primer sequences were described previously. RAW264.7 murine macrophage-like cells and CT26.WT murine colorectal cancer cells (CRL-2638) were purchased from RIKEN BRC (Tsukuba, Japan) and American Type Cell Collection (Manassas, VA, USA), respectively. CT26 cells (4 × 10^6) were grown in T75 flask with 20 mL of RPMI medium containing 10% FBS for 3 days. The culture medium (CT26-CM) was collected and centrifuged at 400 g for 5 min. RAW264.7 cells (2.4 × 10^5) were incubated in 24-well plate in the presence or absence of KS-133 (KS-133 concentration = 1, 3, or 10 μM, DMSO concentration = 0.1%) with 20% CT26-CM/DMEM for 3 days. During the incubation, medium containing KS-133 was replaced every day. mRNA extraction was performed using ISOGEN (Nippon Gene, Tokyo, Japan) on day 3 after CT26-CM incubation, and cDNA was prepared. The gene expression of M1 markers (TNF-α, iNOS, CXCL10), M2 markers (Mrc-1, IL-1rn, CCL22), and β-actin was analyzed by real-time polymerase chain reaction (PCR) using a 7300 Fast Real-Time PCR System (Applied Biosystems, Thermo Fisher Scientific, MA, USA,) and Light Cycler Fast Start DNA Master kit (Applied Biosystems). The relative mRNA expression was determined using the 2^−ΔΔCt method. ΔΔCt was calculated using control group data.
It has been reported that when RAW264.7 cells are incubated in the presence of the culture supernatant of CT26 cells, M1-type macrophage marker mRNA expression is decreased, and that of M2-type macrophages is increased. Using this assay system, we evaluated whether KS-133 affect the mRNA expression of TNFα, iNOS, and CXCL10 as M1-type macrophage markers and Mrc-1, IL-1Rn, and CCL-22 as M2-type macrophage markers. […] Therefore, VIPR2 inhibition by KS-133 changes the macrophage polarity toward M1.
Fig 1 Variation of marker gene expression in M1- and M2-type macrophages in the presence of KS-133. Results are presented as the mean ± SEM (n = 3 independent experiments using separately treated cultures, *p < 0.05 vs. control by two-way ANOVA).

[2] = Water solubility of the peptides, with or without surfactant (appearance); format: physicochemical
Method: KS-133 and KS-133(P3S) (a substitution of proline at position three of KS-133 with serine) were synthesized at SCRUM Inc. (Tokyo, Japan) using Fmoc-based solid-phase peptide synthesis as previously reported. After reverse phase–high-performance liquid chromatography (RP–HPLC) purification, structural assignment was performed by matrix-assisted laser desorption ionization–time-of-flight mass spectrometry (MS). All analytical data of peptides in this report are presented in S1 Table. Cremophor EL® (CrEL) (09727–14) was purchased from Nacalai Tesque, Inc. (Kyoto, Japan). The nanoformulation of peptide using CrEL was done by basically according to the method as previously reported. First, KS-133 or KS-133(P3S) (20 mg) was dissolved in DMSO (100 μL), giving a concentration of 200 mg/mL. Next, CrEL (100 μL) was mixed with purified water (350 μL). The peptide solution was added dropwise to the stirring CrEL solution and mixed. Then, the peptide/CrEL solution made into a suspension by repeated vortex agitation and sonication at approximately 50°C. Purified water (450 μL) was added to the peptide/CrEL solution, and the same process was repeated. […]
Fig 3 Nanoformulation of peptides using CrEL and their characterization. […] The determined particle size of KS-133 NPs was approximately 15.34 nm, and that of KS-133(P3S) NPs was approximately 15.96 nm. […]

[3] = cited from earlier work
Description: Vasoactive intestinal peptide receptor 2 (VIPR2) is a class-B G protein-coupler receptor that participates in various physiological function by interacting with its ligand vasoactive intestinal peptide (VIP). VIP–VIPR2 signaling has attracted attention as a drug target in the fields of central nervous system diseases, oncology, and immunity. In 2021, we generated 13-mer bicyclic peptide KS-133 as a potent and selective antagonist to VIPR2 [1]. […] Generally, peptides are rapidly degraded by proteases, and even if they are resistant to degradation, they are prematurely excreted from the body via renal filtration. Thus, frequent dosing is needed, reducing patients’ quality of life. KS-133 is stable in plasma for at least 24 h. Unfortunately, daily dosing is required for the anti-tumor effects of KS-133 in vivo. A versatile method for improving the pharmacokinetics of peptides is conjugation with polyethylene glycol, but this req ...

[4] = KS-133 10 μM, 0.1% DMSO, 2^−ΔΔCt, n = 3, p < 0.05 vs control

concentration that could be dissolved in DMSO(10%)/CrEL(10%) ([2]; Fig 3C, transparent solution immediately after preparation): ≥ 20000 µg/mL
solubility in aqueous solution / water solubility (in words) ([2]; without surfactant): poor solubility
SMILES: CC[C@H](C)[C@H](NC(=O)[C@H](CC(C)C)NC(=O)[C@@H]1CC(=O)NCCCC[C@@H]2NC(=O)[C@@H]3CCCN3C(=O)[C@H](CC(C)C)NC(=O)[C@H](Cc3ccc(O)cc3)NC(=O)[C@@H]3CCCN3C(=O)[C@@H]3CCCN3C(=O)[C@@H](NC(C)=O)CSSC[C@H](NC(=O)[C@H](CC(C)C)NC(=O)[C@H](Cc3ccc(O)cc3)NC2=O)C(=O)N1)C(N)=O [KS-133] (Ac-CPPYLPKYLCDLI-NH2; disulfide 1-10; lactam 7-11)
mRNA expression level of CXCL10 (M1-type macrophage marker) [1, 4]: significantly enhanced
mRNA expression level of iNOS (M1-type macrophage marker) [1, 4]: significantly enhanced
CCL22 expression (M2-type macrophage marker) [1]: no effect
IL-1Rn expression (M2-type macrophage marker) [1]: no effect
mRNA expression of Mrc-1 (M2-type macrophage marker) ([1]; n = 3, p < 0.05 vs control): significantly decreased
protease degradation [3]: resistant to protease degradation
time stable in plasma ([3]; plasma): at least 24 h

Reference: article PMC10321640, “The VIPR2-selective antagonist KS-133 changes macrophage polarization and exerts potent anti-tumor effects as a single agent and in combination with an anti-PD-1 antibody” (PLOS ONE, 2023)
